Reference: publication PMC10046961, “High-Throughput Screening Assay for Detecting Drug-Induced Changes in Synchronized Neuronal Oscillations and Potential Seizure Risk Based on Ca^2+ Fluorescence Measurements in Human Induced Pluripotent Stem Cell (hiPSC)-Derived Neuronal 2D and 3D Cultures” (Cells, 2023)
Where two headings read alike, the source gives them in different places. Marks after values point to notes of the source that are not given here.

Assays:
[1] = ref PharmaPendium, cited from earlier work
[2] = tested on: hiPSC-derived neurons co-cultured with human primary astrocytes in 2D; experiment: Ca2+ transient oscillation assay (FDSS), 2D co-culture; type: cell-based; conditions: for activation at 0.37 µM / activation at 1.11 µM / activation at 3.33 µM / activation at 10 µM: Homo sapiens, 1 h, 60 min
Procedure, shortened: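 hiPSC-derived excitatory neurons (CW50065, Quick-Neuron EX-SeV) co-cultured with human primary astrocytes at 4:1 (10,000:2500 cells per well). Cal-520-loaded cells in HBSS with 2 mM CaCl2 and 10 mM HEPES were pretreated with 0.04% DMSO.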

[3] = tested on: hiPSC-derived neurons co-cultured with human primary astrocytes in 3D; experiment: Ca2+ transient oscillation assay (FDSS), 3D spheroids; type: cell-based; conditions: for Area under the curve - 3D Mean / Peak Number—3D Mean / Peak amplitude - 3D Mean / Peak width - 3D Mean / Peak-to-peak interval - 3D Mean: 60 min
Procedure, shortened: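 Fura-2 fluorescence was read twice for 20 min each: a baseline 10 min after 0.04% DMSO, and again 60 min after compound addition at nominal final concentration. The 3D co-cultures (1:1 hiPSC neurons from a donor and human astrocytes, 8000 each) matured 5 weeks in BrainPhys medium after a 1-week differentiation.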

[4] = read-out: Area under the curve - 2D Mean
[5] = read-out: Peak amplitude - 2D Mean
[6] = read-out: Peak-to-peak interval - 2D Mean

## Nc1ccncc1 [4-AP, 4-Aminopyridine]
[1]; Table 1, peak plasma concentration in men, free therapeutic Cmax
  Free Cmax: 25 to 75 nM
[1]; Table 2, highest plasma concentration in humans after the therapeutic dose
  Free Cmax: 25 to 75 nM
[2]; 2D format
  effect on peak number / Ca2+ neuronal oscillations, in words: significantly increased peak number
[2]; 2D, 4-AP 30 µM, kainic acid 100 µM
  response of positive controls on Ca2+ transient oscillations: significant responses
[2]; 4-AP at 30 µM, kainic acid at 10 µM
  change of Ca2+ neuronal oscillations (Figure 1): large increases
[2]; [4]
  activation at 0.37 µM: 39.5%
  activation at 1.11 µM: 18.7%
  activation at 3.33 µM: 17.6%
  activation at 10 µM: 1.3%
[2]; read-out: Peak Number—2D Mean
  activation at 0.37 µM: 9%
  activation at 1.11 µM: 70.3%
  activation at 3.33 µM: 85.8%
  activation at 10 µM: 110%
[2]; [5]
  activation at 0.37 µM: 13.3%
  activation at 1.11 µM: 7.8%
  activation at 3.33 µM: 10.4%
  activation at 10 µM: 8.5%
[2]; read-out: Peak width - 2D Mean
  activation at 0.37 µM: 34%
  activation at 1.11 µM: 14.3%
  activation at 3.33 µM: 12.6%
  activation at 10 µM: -6.3%
[2]; [6]
  activation at 0.37 µM: -13%
  activation at 1.11 µM: -29.8%
  activation at 3.33 µM: -42.4%
  activation at 10 µM: -49.8%
[3]; 0.37 µM
  Area under the curve - 3D Mean: 53.7 % change from baseline
  Peak Number—3D Mean: 16.7 % change from baseline
  Peak amplitude - 3D Mean: 44.3 % change from baseline
  Peak width - 3D Mean: 2.8 % change from baseline
  Peak-to-peak interval - 3D Mean: −9.2 % change from baseline
[3]; 1.11 µM
  Area under the curve - 3D Mean: 54.1 % change from baseline
  Peak Number—3D Mean: 62.4 * % change from baseline
  Peak amplitude - 3D Mean: 39.6 % change from baseline
  Peak width - 3D Mean: 7.7 % change from baseline
  Peak-to-peak interval - 3D Mean: −24.1 % change from baseline
[3]; 3.33 µM
  Area under the curve - 3D Mean: 97.2 % change from baseline
  Peak Number—3D Mean: 24.1 * % change from baseline
  Peak amplitude - 3D Mean: 46.1 % change from baseline
  Peak width - 3D Mean: 35.1 % change from baseline
  Peak-to-peak interval - 3D Mean: −17.6 % change from baseline
[3]; 10 µM
  Area under the curve - 3D Mean: 72.3 % change from baseline
  Peak Number—3D Mean: 89.0 ** % change from baseline
  Peak amplitude - 3D Mean: 42.8 % change from baseline
  Peak width - 3D Mean: 21.4 % change from baseline
  Peak-to-peak interval - 3D Mean: −47.2 % change from baseline
[3]; 3D, 4-AP 30 µM, kainic acid 100 µM
  response of positive controls on Ca2+ transient oscillations: significant responses
